Test results published in patent publication EP4722219A1 (Gan & Lee Pharmaceuticals Co., Ltd., priority 2023, dated 2024).

Columns and labels:
Type in all cases: cell-based
SMARCA4 [1] = target: T1, SMARCA4 (Homo sapiens, UniProt P51532); assay: SMARCA4 degradation in SW1573 cells (Western blot); set-up: endogenous in cells; host or cells: SW1573; details: 24 hours; for Dmax at 0.001 µM / Dmax at 0.08 µM: read-out: Degradation rate of SMARCA4 in SW1573 cells (%)
Protocol: SW1573 cells were seeded at 2x10^5Cells/well in a 6-well plate. 2 mL of EMEM medium supplemented with 10% FBS was added to each well and was incubated overnight to allow cell attachment. […] The cells were returned to the incubator and incubated for another 24 hours.
(§1) After 24 hours, cells were harvested, the medium was aspirated, and the cells were rinsed once with 1 mL/well PBS. The PBS was aspirated, and 40 µL/well of RIPA lysis buffer containing protease inhibitors was added. After lysis and centrifugation, total protein extracts were obtained, and protein concentration in the extracts was determined by BCA assay. Protein electrophoresis was performed by SDS-PAGE, followed by constant voltage electrophoresis at 100 V for 60 minutes and the protein was then transferred to a PVDF membrane. The PVDF membrane was blocked in 5% skim milk powder for 1 hour at room temperature. […] After washing the membrane, secondary antibodies were added and incubated at room temperature for 1 hour (protected from the light). After washing, the membrane was exposed using an Odyssey luminometer. Grayscale analysis of bands was performed using Image Studio software.
(§2) The degradation rate (%) of SMARCA2/4 by the PROTAC compounds of the present invention in HeLa cells and SW1573 cells is shown in Table 10. Table 10 Degradation rate of SMARCA2/4 by PROTAC compounds of the present invention in HeLa cells and SW1573 cells (%)

SMARCA2 [2] = target: T2, SMARCA2 (Homo sapiens, UniProt P51531); assay: SMARCA2 degradation in SW1573 cells (Western blot); set-up: endogenous in cells; host or cells: SW1573; details: 24 hours
Protocol: (§3) Test Example 10 Degradation rate (%) of SMARCA2/4 by the PROTAC compounds of the present invention in HeLa cells and SW1573 cells
SW1573 cells were seeded at 2x10^5Cells/well in a 6-well plate. 2 mL of EMEM medium supplemented with 10% FBS was added to each well and was incubated overnight to allow cell attachment. The next day, 1 µL of 160 µM and 1 µL of 2 µM compound were added to the corresponding wells for treatment, resulting in final compound concentrations of 80 nM and 1 nM, respectively, and a final DMSO concentration of 0.05%. The cells were returned to the incubator and incubated for another 24 hours.
(§4) After 24 hours, cells were harvested, the medium was aspirated, and the cells were rinsed once with 1 mL/well PBS. The PBS was aspirated, and 40 µL/well of RIPA lysis buffer containing protease inhibitors was added. After lysis and centrifugation, total protein extracts were obtained, and protein concentration in the extracts was determined by BCA assay. Protein electrophoresis was performed by SDS-PAGE, followed by constant voltage electrophoresis at 100 V for 60 minutes and the protein was then transferred to a PVDF membrane. The PVDF membrane was blocked in 5% skim milk powder for 1 hour at room temperature. Primary antibodies (SMARCA2: CST#11966S, SMARCA4: CST#49360S, GAPDH: CST#5174S) were added and incubated overnight at 4°C. After washing the membrane, secondary antibodies were added and incubated at room temperature for 1 hour (protected from the light). After washing, the membrane was exposed using an Odyssey luminometer. Grayscale analysis of bands was performed using Image Studio software.
as §2

SMARCA4 [3] = target: T1, SMARCA4; assay: SMARCA4 degradation in HeLa cells (Western blot); set-up: endogenous in cells; details: 4 hours; for Dmax at 0.001 µM / Dmax at 0.08 µM: read-out: Degradation rate of SMARCA4 in HeLa cells (%)
Protocol: HeLa cells were seeded at 1.2 x 10^5 cells/well in a 6-well plate. 2 mL of EMEM medium supplemented with 10% FBS was added to each well and the culture dish was incubated overnight to allow the cells to adhere. […] The cells were returned to the incubator and incubated for another 4 hours.
as §1, with “After 4 hours, cells” for “After 24 hours, cells”, “harvested, the culture medium was” for “harvested, the medium was”
as §2

SMARCA2 [4] = target: T2, SMARCA2; assay: SMARCA2 degradation in HeLa cells (Western blot); set-up: endogenous in cells; details: 4 hours
Protocol: as §3
HeLa cells were seeded at 1.2 x 10^5 cells/well in a 6-well plate. 2 mL of EMEM medium supplemented with 10% FBS was added to each well and the culture dish was incubated overnight to allow the cells to adhere. The next day, 1 µL of 160 µM and 1 µL of 2 µM compound were added to the corresponding wells, resulting in final compound concentrations of 80 nM and 1 nM, respectively, and a final DMSO concentration of 0.05%. The cells were returned to the incubator and incubated for another 4 hours.
as §4, with “After 4 hours, cells” for “After 24 hours, cells”, “harvested, the culture medium was” for “harvested, the medium was”
as §2

T2 sequence (P51531 whole entry): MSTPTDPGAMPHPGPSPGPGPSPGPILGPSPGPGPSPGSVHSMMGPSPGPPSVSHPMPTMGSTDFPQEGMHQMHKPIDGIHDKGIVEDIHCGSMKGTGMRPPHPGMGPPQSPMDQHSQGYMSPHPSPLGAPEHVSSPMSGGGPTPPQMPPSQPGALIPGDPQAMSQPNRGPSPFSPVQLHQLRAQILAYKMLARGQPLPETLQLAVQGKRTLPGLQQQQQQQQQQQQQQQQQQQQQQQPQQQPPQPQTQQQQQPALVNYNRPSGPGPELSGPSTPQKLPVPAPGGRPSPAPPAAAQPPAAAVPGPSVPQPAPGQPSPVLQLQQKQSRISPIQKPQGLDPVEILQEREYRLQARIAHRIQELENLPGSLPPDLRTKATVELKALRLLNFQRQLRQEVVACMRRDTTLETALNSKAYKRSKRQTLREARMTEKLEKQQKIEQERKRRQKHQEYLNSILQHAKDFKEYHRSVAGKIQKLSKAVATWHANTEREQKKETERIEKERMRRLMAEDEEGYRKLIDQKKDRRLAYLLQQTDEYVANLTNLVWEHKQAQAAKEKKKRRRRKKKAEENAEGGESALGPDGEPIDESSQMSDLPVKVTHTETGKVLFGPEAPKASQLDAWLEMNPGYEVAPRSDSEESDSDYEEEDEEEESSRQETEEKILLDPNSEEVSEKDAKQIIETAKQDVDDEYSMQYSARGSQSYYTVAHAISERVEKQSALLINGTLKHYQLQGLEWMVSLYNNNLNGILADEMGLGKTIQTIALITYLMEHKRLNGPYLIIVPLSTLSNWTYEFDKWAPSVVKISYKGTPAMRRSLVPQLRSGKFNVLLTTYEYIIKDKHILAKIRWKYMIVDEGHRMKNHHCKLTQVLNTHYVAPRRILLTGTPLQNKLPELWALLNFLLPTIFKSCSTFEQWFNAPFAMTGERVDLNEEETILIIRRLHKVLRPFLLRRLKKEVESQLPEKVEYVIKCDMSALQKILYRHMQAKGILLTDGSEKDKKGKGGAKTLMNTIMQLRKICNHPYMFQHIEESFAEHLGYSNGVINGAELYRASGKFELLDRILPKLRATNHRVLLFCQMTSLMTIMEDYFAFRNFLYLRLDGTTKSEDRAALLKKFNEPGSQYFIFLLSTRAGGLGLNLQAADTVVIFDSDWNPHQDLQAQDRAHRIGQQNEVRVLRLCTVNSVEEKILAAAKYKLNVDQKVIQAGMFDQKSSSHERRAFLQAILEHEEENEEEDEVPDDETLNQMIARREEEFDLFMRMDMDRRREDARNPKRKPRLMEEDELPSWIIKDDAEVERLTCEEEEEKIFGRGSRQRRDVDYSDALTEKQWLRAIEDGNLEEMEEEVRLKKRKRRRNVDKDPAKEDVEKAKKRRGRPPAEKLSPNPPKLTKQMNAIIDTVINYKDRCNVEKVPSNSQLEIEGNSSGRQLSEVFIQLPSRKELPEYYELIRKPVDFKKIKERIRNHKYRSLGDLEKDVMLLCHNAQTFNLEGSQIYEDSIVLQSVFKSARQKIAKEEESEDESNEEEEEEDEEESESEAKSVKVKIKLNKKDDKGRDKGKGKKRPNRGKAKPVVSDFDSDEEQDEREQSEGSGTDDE
T1 sequence (P51532 whole entry): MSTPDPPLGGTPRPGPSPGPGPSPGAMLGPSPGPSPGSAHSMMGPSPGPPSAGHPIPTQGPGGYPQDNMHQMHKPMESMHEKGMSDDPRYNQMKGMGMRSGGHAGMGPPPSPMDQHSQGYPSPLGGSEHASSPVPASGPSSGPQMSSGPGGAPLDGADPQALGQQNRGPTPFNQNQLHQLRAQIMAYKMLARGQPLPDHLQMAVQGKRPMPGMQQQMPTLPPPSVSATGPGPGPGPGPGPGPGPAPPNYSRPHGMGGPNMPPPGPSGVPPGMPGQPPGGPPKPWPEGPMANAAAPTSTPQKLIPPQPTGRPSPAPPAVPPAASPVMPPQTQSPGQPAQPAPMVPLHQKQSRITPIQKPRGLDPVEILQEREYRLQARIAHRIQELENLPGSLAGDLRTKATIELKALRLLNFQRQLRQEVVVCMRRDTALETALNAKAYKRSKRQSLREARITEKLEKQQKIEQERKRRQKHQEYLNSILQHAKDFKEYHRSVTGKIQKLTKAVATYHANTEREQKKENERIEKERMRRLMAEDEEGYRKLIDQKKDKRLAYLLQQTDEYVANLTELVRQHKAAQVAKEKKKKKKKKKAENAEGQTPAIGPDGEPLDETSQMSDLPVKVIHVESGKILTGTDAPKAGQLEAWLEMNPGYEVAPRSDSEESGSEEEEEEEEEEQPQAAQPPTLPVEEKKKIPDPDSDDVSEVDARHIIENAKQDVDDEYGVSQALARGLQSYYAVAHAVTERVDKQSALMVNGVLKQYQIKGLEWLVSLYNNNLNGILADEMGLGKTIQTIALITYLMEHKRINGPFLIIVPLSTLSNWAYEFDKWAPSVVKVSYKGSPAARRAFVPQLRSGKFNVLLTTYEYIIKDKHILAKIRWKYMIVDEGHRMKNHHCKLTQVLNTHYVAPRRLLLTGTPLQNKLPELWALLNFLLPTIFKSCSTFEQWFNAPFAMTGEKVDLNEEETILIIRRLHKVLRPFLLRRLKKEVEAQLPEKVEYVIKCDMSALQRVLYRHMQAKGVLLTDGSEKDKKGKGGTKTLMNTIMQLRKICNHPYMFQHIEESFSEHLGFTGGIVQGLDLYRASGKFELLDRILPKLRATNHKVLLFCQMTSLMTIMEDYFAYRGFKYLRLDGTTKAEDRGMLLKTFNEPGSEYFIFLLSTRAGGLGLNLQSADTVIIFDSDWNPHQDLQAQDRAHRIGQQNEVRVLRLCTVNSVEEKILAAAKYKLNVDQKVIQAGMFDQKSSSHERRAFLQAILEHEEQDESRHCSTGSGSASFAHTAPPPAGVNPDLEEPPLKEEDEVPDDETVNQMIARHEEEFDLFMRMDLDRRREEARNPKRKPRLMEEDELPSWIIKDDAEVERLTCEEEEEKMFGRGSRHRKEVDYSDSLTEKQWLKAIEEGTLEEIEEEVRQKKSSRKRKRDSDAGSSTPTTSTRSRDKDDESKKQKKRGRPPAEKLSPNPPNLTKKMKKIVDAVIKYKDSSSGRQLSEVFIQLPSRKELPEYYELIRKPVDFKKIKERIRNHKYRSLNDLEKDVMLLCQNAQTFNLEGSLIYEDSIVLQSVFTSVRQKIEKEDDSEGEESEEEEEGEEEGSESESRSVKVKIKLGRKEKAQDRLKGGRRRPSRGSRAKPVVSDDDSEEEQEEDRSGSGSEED

Compound	Dmax at 0.001 µM (SMARCA4 [1]; 1 nM)	Dmax at 0.08 µM (SMARCA4 [1]; 80 nM)	Degradation rate of SMARCA2 in SW1573 cells (%) (SMARCA2 [2]; 1 nM)	Degradation rate of SMARCA2 in SW1573 cells (%) (SMARCA2 [2]; 80 nM)	Dmax at 0.001 µM (SMARCA4 [3]; 1 nM)	Dmax at 0.08 µM (SMARCA4 [3]; 80 nM)	Degradation rate of SMARCA2 in HeLa cells (%) (SMARCA2 [4]; 1 nM)	Degradation rate of SMARCA2 in HeLa cells (%) (SMARCA2 [4]; 80 nM)	Degradation rate of SMARCA4 in SW1573 cells (%) (SMARCA4 [1]; 1 nM)	Degradation rate of SMARCA4 in SW1573 cells (%) (SMARCA4 [1]; 80 nM)	Degradation rate of SMARCA4 in HeLa cells (%) (SMARCA4 [3]; 1 nM)	Degradation rate of SMARCA4 in HeLa cells (%) (SMARCA4 [3]; 80 nM)
Cn1c(=O)n(C2CCC(=O)NC2=O)c2cc3c(cc21)OC1(CC3)CCN(C2CC3(CCC(C#Cc4cc(-c5ccccc5O)nnc4N)CC3)C2)CC1 (stereo not drawn) [SM-P-1, 3-(1'-(7-((3-amino-6-(2-hydroxyphenyl)pyridazin-4-yl)ethynyl)spiro[3.5]nonan-2-yl)-3-methyl-2-oxo-2,3,7,8-tetrahydro-1H-spiro[chromeno[6,7-d]imidazole-6,4'-piperidin]-1-yl)piperidine-2,6-dione]	43%	97%	72%	96%	85%	98%	90%	100%				
Nc1nnc(-c2ccccc2O)cc1C#CC1CCC2(CC1)CC(N1CCC3(CCc4cc(F)c(C(=O)N[C@H]5CCC(=O)NC5=O)cc4O3)CC1)C2 (stereo partly drawn) [SM-P-12]	28%	5%	32%	32%	17%	24%	6%	14%				
Nc1nnc(-c2ccccc2O)cc1C#CC1CCC2(CC1)CC(N1CCC3(CC1)COc1c3ccc(F)c1C(=O)N[C@H]1CCC(=O)NC1=O)C2 (stereo partly drawn) [SM-P-19]			11%	31%			14%	59%	1%	0%	-11%	24%
Cn1c(=O)n(C2CCC(=O)NC2=O)c2cc3c(cc21)C1(CCN(C(=O)[C@H]2CC[C@H](Cn4cc(-c5cc(-c6ccccc6O)nnc5N)cn4)CC2)CC1)CO3 (stereo partly drawn) [SM-P-28, 3-(1'-((1r,4r)-4-((4-(3-amino-6-(2-hydroxyphenyl)pyridazin-4-yl)-1H-pyrazol-1-yl)methyl)cyclohexane-1-carbonyl)-1-methyl-2-oxo-1,2-dihydro-3H,6H-spiro[benzofuro[5,6-d]imidazole-7,4'-piperidin]-3-yl)piperidine-2,6-dione]	11%	95%	14%	77%	38%	99%	17%	98%				
Cc1ncsc1-c1ccc([C@H](C)NC(=O)[C@@H]2C[C@@H](O)CN2C(=O)[C@@H](NC(=O)[C@H]2CC[C@H](CN3CC4(CCC(n5cc(-c6cc(-c7ccccc7O)nnc6N)cn5)CC4)C3)CC2)C(C)(C)C)cc1 [SMD-3040, (2S,4R)-1-((S)-2-((1R,4S)-4-((7-(4-(3-amino-6-(2-hydroxyphenyl)pyridazin-4-yl)-1H-pyrazol-1-yl)-2-azaspiro[3.5]nonan-2-yl)methyl)cyclohexane-1-carboxamido)-3,3-dimethylbutanoyl)-4-hydroxy-N-((S)-1-(4-(4-methylthiazol-5-yl)phenyl)ethyl)pyrrolidine-2-carboxamide, reference compound]			89%	99%					21%	86%		
Nc1nnc(-c2ccccc2O)cc1C#CC1CCC2(CC1)CC(N1CC3(CCc4cc(F)c(C(=O)N[C@H]5CCC(=O)NC5=O)cc4O3)C1)C2 (stereo partly drawn) [SM-P-9]	-8%	-5%	3%	7%	-7%	21%	11%	15%				
Nc1nnc(-c2ccccc2O)cc1C#CC1CCC2(CC1)CC(N1CCC3(CC1)COc1cc(NC4CCC(=O)NC4=O)ccc1C3)C2 (stereo not drawn) [SM-P-23, 3-((1'-(7-((3-amino-6-(2-hydroxyphenyl)pyridazin-4-yl)ethynyl)spiro[3.5]nonan-2-yl)spiro[chromane-3,4'-piperidin]-7-yl)amino)piperidine-2,6-dione]	-14%	93%	38%	95%								

More lines, main results first:

Dmax at 0.001 µM (SMARCA4 [1]; 1 nM)	Dmax at 0.08 µM (SMARCA4 [1]; 80 nM)	Degradation rate of SMARCA2 in SW1573 cells (%) (SMARCA2 [2]; 1 nM)	Degradation rate of SMARCA2 in SW1573 cells (%) (SMARCA2 [2]; 80 nM)	Dmax at 0.001 µM (SMARCA4 [3]; 1 nM)	Dmax at 0.08 µM (SMARCA4 [3]; 80 nM)	Degradation rate of SMARCA2 in HeLa cells (%) (SMARCA2 [4]; 1 nM)	Degradation rate of SMARCA2 in HeLa cells (%) (SMARCA2 [4]; 80 nM)	Degradation rate of SMARCA4 in SW1573 cells (%) (SMARCA4 [1]; 1 nM)	Degradation rate of SMARCA4 in SW1573 cells (%) (SMARCA4 [1]; 80 nM)	Compound	Degradation rate of SMARCA4 in HeLa cells (%) (SMARCA4 [3]; 1 nM)	Degradation rate of SMARCA4 in HeLa cells (%) (SMARCA4 [3]; 80 nM)
		20%	34%					-30%	-41%	Nc1nnc(-c2ccccc2O)cc1C#CC1CCC2(CC1)CC(N1CCN3c4cc(F)c(C(=O)N[C@H]5CCC(=O)NC5=O)cc4OC[C@H]3C1)C2 (stereo partly drawn) [SM-P-6, (R)-3-(7-((3-amino-6-(2-hydroxyphenyl)pyridazin-4-yl)ethynyl)spiro[3.5]nonan-2-yl)-n-((S)-2,6-dioxopiperidin-3-yl)-9-fluoro-1,2,3,4,4a,5-hexahydrobenzo[b]pyrazi no[1,2-d][1,4]oxazine-8-carboxamide]		
14%	4%	-9%	28%							Nc1nnc(-c2ccccc2O)cc1C#CC1CCC2(CC1)CC(N1CCN3c4ccc(C(=O)N[C@H]5CCC(=O)NC5=O)c(F)c4OC[C@H]3C1)C2 (stereo partly drawn) [SM-P-22]		
-18%	12%	12%	72%							Nc1nnc(-c2ccccc2O)cc1C#CC1CCC2(CC1)CC(N1CCN3c4cc(NC5CCC(=O)NC5=O)ccc4OCC[C@H]3C1)C2 (stereo partly drawn) [SM-P-17]		
